Experimental findings from US9951183B2, “Amphiphilic blockcopolymers comprising reduction sensitive biodegradable polyesteramides” (DSM IP Assets B.V., priority 2014, dated 2018) are described below.

For data set [1], the system named is HeLa cells. The data set is described as follows: Cellular uptake and intracellular release of DOX (CLSM). It is filed as cell-based. The following applies: DOX 12.5 μg/mL. Here is the method:
HeLa cells are plated on microscope slides in a 24-well plate (5×10^4 cells/well) under 5% CO2 atmosphere at 37° C. using Dulbecco's modified Eagle's medium (DMEM) supplemented with 10% fetal bovine serum, 1% L-glutamine, antibiotics penicillin (100 IU/mL), and streptomycin (100 μg/mL). […] After incubation at 37° C. and a humidified 5% CO2-containing atmosphere for 0.5, 2 or 4 h, the culture media are removed and the cells on microscope plates are washed three times with PBS. The cells are then fixed with 4% formaldehyde for 15 min and washed with PBS 3 times. The cell nuclei are stained with 4′,6-diamidino-2-phenylindole (DAPI, blue) for 15 min and washed with PBS 3 times.

Data set [2] deals with HeLa cells. The data set can be described thus: Cell viability MTT assay, HeLa. It counts as cell-based. The following applies: DOX 12.5 μg/mL. Here is the method: HeLa and MCF-7 cells are plated in a 96-well plate (1×10^4 cells/well) using DMEM medium supplemented with 10% fetal bovine serum, 1% L-glutamine, antibiotics penicillin (100 IU/mL), and streptomycin (100 μg/mL) and incubation for 24 h. […] Then 3-(4,5-dimethylthiazol-2-yl)-2,5-diphenyl tetrazoliumbromide (MTT) solution in PBS (10 μL, 5 mg/mL) are added and incubated for another 4 h. The medium is aspirated, the MTT-formazan generated by live cells is dissolved in 150 μL of DMSO, and the absorbance at a wavelength of 490 nm of each well is measured using a microplate reader. The relative cell viability (%) is determined by comparing the absorbance at 490 nm with control wells containing only cell culture medium. Data are presented as average±SD (n=4).

In the case of `COc1cccc2c1C(=O)c1c(O)c3c(c(O)c1C2=O)C[C@@](O)(C(=O)CO)C[C@@H]3O[C@H]1C[C@H](N)[C@H](O)[C@H](C)O1` [free DOX, doxorubicin], the “intracellular distribution of DOX” value in the data set with HeLa cells [1] was “mainly accumulated in cell nucleus”. Moreover, the cell viability with HeLa cells [2] (24 h) is 31.8%; in the data set on HeLa cells [2] (48 h) it was 19.1%.
